# Reference: US11559538B2, “Substituted 1,2-oxaborolan-2-ols as PDE4 inhibitors” (Pfizer Inc., priority 2018, dated 2023)
# Like-named read-outs stand apart in the source and are kept apart here.
# How the values were obtained:
# IFNγ = assay: Cytokine assay: IFNγ release from PHA-L stimulated human PBMCs; format: cell-based
# In short: (§1)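 IC50 values came from four-parameter logistic fits of supernatant cytokine, which was quantified by HTRF. Mitogen stimulation used PHA-L at a final 3.5 μg/mL on about 250,000 thawed human PBMCs per well, in serum-containing RPMI medium with 0.25% DMSO, for 48 h.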
# IL-13 = assay: Cytokine assay: IL-13 release from PHA-L stimulated human PBMCs; format: cell-based; conditions: read-out: IL13 IC50
# In short: as §1
# [1] = target: PDE4B (aa 152-484, Uniprot ID Q07343) (Homo sapiens (Human), UniProt Q07343); assay: PDE4 SPA assay (scintillation proximity assay); format: biochemical; conditions: read-out: PDE4B2 IC50
# In short: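 PDE4B (aa 152-484, ~81.6 pM) preincubated ~10 min with compound, then 1 μM ³H/unlabeled cAMP added in Tris pH 7.5, 1.3 mM MgCl2, 0.004% Brij 35, ~2% DMSO; 30 min at RT. Product captured on SPA beads and counted; IC50 by four-parameter logistic fit.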
# IL-4 = assay: Cytokine assay: IL-4 release from PHA-L stimulated human PBMCs; format: cell-based; conditions: read-out: IL4 IC50
# In short: as §1
# Chain of PDE4B (aa 152-484, Uniprot ID Q07343) (Q07343 324-656): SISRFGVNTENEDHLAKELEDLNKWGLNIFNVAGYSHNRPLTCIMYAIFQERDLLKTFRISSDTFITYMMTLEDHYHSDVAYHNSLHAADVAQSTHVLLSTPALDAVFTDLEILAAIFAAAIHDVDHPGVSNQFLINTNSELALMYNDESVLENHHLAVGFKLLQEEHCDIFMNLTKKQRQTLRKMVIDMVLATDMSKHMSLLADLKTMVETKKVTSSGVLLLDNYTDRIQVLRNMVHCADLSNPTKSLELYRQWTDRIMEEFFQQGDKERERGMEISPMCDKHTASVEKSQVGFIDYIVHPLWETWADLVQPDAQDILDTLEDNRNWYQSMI
"IC50 (IFNγ; Homo sapiens, PBMC) [nM]","IC50 (IL-13; Homo sapiens, PBMC) [nM]",IC50 [1] [nM],"IC50 (IL-4; Homo sapiens, PBMC) [nM]",IC50 (IFNγ) [nM],IC50 (IL-13) [nM],IC50 (IL-4) [nM],SMILES
–,–,4.02,–,12.6,759,99.9,"COc1ccc(-c2cccc(C3COB(O)C3)n2)cc1OC1CCCC1 (single isomer, unassigned) [Example 67, 4-(6-(3-(cyclopentyloxy)-4-methoxyphenyl)pyridin-2-yl)-1,2-oxaborolan-2-ol]"
9.42,957,1.37,44.3,–,–,–,"CSc1ccc(-c2cncc(C3COB(O)C3)c2)cc1OC1CCCC1 (centres unmarked) [Example 99, 4-(5-(3-(cyclopentyloxy)-4-(methylthio)phenyl)pyridin-3-yl)-1,2-oxaborolan-2-ol]"
1.33,163,0.99,2.24,–,–,–,"CCOc1cc(-c2cncc(C3COB(O)C3)n2)ccc1OC (single isomer, unassigned) [Example 24, 4-(6-(3-ethoxy-4-methoxyphenyl)pyrazin-2-yl)-1,2-oxaborolan-2-ol]"
1.82,182,1.63,13.8,–,–,–,"COc1ccc(-c2cncc(C3COB(O)C3)c2)cc1OCCF (centres unmarked) [Example 39, 4-(5-(3-(2-fluoroethoxy)-4-methoxyphenyl)pyridin-3-yl)-1,2-oxaborolan-2-ol]"
0.87,793,0.49,20.2,–,–,–,"COc1ccc(-c2cncc(C3COB(O)C3)c2)cc1OC1CCCC1 (centres unmarked) [Example 149, 4-(5-(3-(cyclopentyloxy)-4-methoxyphenyl)pyridin-3-yl)-1,2-oxaborolan-2-ol]"
1.66,460,0.5,9.87,–,–,–,"COc1cnc(-c2cccc(C3COB(O)C3)c2)nc1OC1CCCC1 (centres unmarked) [Example 93, 4-(3-(4-(cyclopentyloxy)-5-methoxypyrimidin-2-yl)phenyl)-1,2-oxaborolan-2-ol]"
–,–,4.92,–,13.7,2000,20.7,"CCOc1cc(-c2cncc(C3COB(O)C3)c2)cc(F)c1OC (single isomer, unassigned; enantiomer 2) [Example 214, 4-(5-(3-ethoxy-5-fluoro-4-methoxyphenyl)pyridin-3-yl)-1,2-oxaborolan-2-ol, enantiomer 2]"
3.17,1300,0.68,2.23,–,–,–,"COc1ccc(-c2nc(C3COB(O)C3)ns2)cc1OC1CC1 (single isomer, unassigned; enantiomer 2) [Example 181, (−) 4-(5-(3-cyclopropoxy-4-methoxyphenyl)-1,2,4-thiadiazol-3-yl)-1,2-oxaborolan-2-ol, enantiomer 2]"
17.8,2520,8.72,24.7,–,–,–,"COc1ccc(-c2cccc(C3COB(O)C3)n2)c(C#N)c1OC1CCCC1 (centres unmarked) [Example 226, 2-(cyclopentyloxy)-6-(6-(2-hydroxy-1,2-oxaborolan-4-yl)pyridin-2-yl)-3-methoxybenzonitrile]"
17.9,583,4.65,197,–,–,–,"COc1ccc(-c2cccc(C3COB(O)C3)c2)cc1OC (centres unmarked) [Example 232, 4-(3′,4′-dimethoxy-[1,1′-biphenyl]-3-yl)-1,2-oxaborolan-2-ol]"
–,–,1.34,–,4.62,2150,19.8,"COc1ccc(-c2cncc(C3COB(O)C3)c2)cc1OC1CCSC1 (centres unmarked) [Example 80, 4-(5-(4-methoxy-3-((tetrahydrothiophen-3-yl)oxy)phenyl)pyridin-3-yl)-1,2-oxaborolan-2-ol]"

# More lines, now with the values behind:
SMILES,"IC50 (IFNγ; Homo sapiens, PBMC) [nM]","IC50 (IL-13; Homo sapiens, PBMC) [nM]",IC50 [1] [nM],"IC50 (IL-4; Homo sapiens, PBMC) [nM]",IC50 (IFNγ) [nM],IC50 (IL-13) [nM],IC50 (IL-4) [nM]
"CCCOc1cc(-n2ccc(C3COB(O)C3)n2)ccc1OC (centres unmarked) [Example 200, 4-(1-(4-methoxy-3-propoxyphenyl)-1H-pyrazol-3-yl)-1,2-oxaborolan-2-ol]",14.1,1600,12.9,128,–,–,–
"CCCOc1cc(-c2nc(CO)cc(C3COB(O)C3)n2)ccc1OC (centres unmarked) [Example 76, 4-(6-(hydroxymethyl)-2-(4-methoxy-3-propoxyphenyl)pyrimidin-4-yl)-1,2-oxaborolan-2-ol]",–,–,10,–,2.17,403,5.75
"CCOc1cc(-c2cncc(C3COB(O)C3)c2C(F)F)ccc1OC (centres unmarked) [Example 138, 4-(4-(difluoromethyl)-5-(3-ethoxy-4-methoxyphenyl)pyridin-3-yl)-1,2-oxaborolan-2-ol]",0.9,988,2.04,1.08,–,–,–
"CCCOc1c(OC)ccc(-c2cncc(C3COB(O)C3)c2)c1OC (single isomer, unassigned; enantiomer 1) [Example 168, (−) 4-(5-(2,4-dimethoxy-3-propoxphenyl)pyridin-3-yl)-1,2-oxaborolan-2-ol, enantiomer 1]",0.64,1260,0.88,1.17,–,–,–
"CCCOc1cc(-c2cc(C)cc(C3COB(O)C3)n2)ccc1OC (centres unmarked) [Example 158, 4-(6-(4-methoxy-3-propoxyphenyl)-4-methylpyridin-2-yl)-1,2-oxaborolan-2-ol]",10.2,929,12,59.1,–,–,–
"CCCOc1cc(-c2nc(C3COB(O)C3)cc(C(F)(F)F)n2)ccc1OC (single isomer, unassigned) [Example 23, 4-(2-(4-methoxy-3-propoxyphenyl)-6-(trifluoromethyl)pyrimidin-4-yl)-1,2-oxaborolan-2-ol]",0.85,132,0.97,0.61,–,–,–
"CCOc1cc(-c2cncc(C3COB(O)C3)c2)c(Cl)cc1OC (single isomer, unassigned) [Example 15, 4-(5-(2-chloro-5-ethoxy-4-methoxyphenyl)pyridin-3-yl)-1,2-oxaborolan-2-ol]",0.71,136,1.57,1.41,–,–,–
"CCCOc1cc(-c2nc(C3COB(O)C3)cc(C(F)(F)F)n2)ccc1OC (centres unmarked) [Example 124, 4-(2-(4-methoxy-3-propoxyphenyl)-6-(trifluoromethyl)pyrimidin-4-yl)-1,2-oxaborolan-2-ol]",–,–,2.2,–,10.1,1660,9.48
"CCOc1cc(-c2c(C)ncc(C3COB(O)C3)c2C)ccc1OC (single isomer, unassigned; enantiomer 1) [Example 205, (+) 4-(5-(3-ethoxy-4-methoxyphenyl)-4,6-dimethylpyridin-3-yl)-1,2-oxaborolan-2-ol, enantiomer 1]",1.09,1770,0.52,1.06,–,–,–
"CCCOc1c(OC)ccc(-c2cccc(C3COB(O)C3)c2)c1C#N (centres unmarked) [Example 42, 3′-(2-hydroxy-1,2-oxaborolan-4-yl)-4-methoxy-3-propoxy-[1,1′-biphenyl]-2-carbonitrile]",1.55,205,0.35,90.4,–,–,–
"CCCOc1cc(-c2cc(C3COB(O)C3)cc(CO)n2)ccc1OC (single isomer, unassigned; enantiomer 1) [Example 180, 4-(2-(hydroxymethyl)-6-(4-methoxy-3-propoxyphenyl)pyridin-4-yl)-1,2-oxaborolan-2-ol, enantiomer 1]",6.65,1290,3.01,6.33,–,–,–
"CCOc1cc(-c2cncc(C3COB(O)C3)c2)cc(C#N)c1OC (single isomer, unassigned) [Example 119, 3-ethoxy-5-(5-(2-hydroxy-1,2-oxaborolan-4-yl)pyridin-3-yl)-2-methoxybenzonitrile]",7.34,1190,0.72,5.74,–,–,–
"CCCOc1nc(-c2cncc(C3COB(O)C3)c2)ccc1OC (centres unmarked) [Example 60, 4-(5-methoxy-6-propoxy-[2,3′-bipyridin]-5′-yl)-1,2-oxaborolan-2-ol]",0.53,308,0.34,2.04,–,–,–
"CCOc1c(OC)ccc(-c2cccc(C3COB(O)C3)c2)c1F (centres unmarked) [Example 166, 4-(3′-ethoxy-2′-fluoro-4′-methoxy-[1,1′-biphenyl]-3-yl)-1,2-oxaborolan-2-ol]",5.46,1010,0.97,49.2,–,–,–
"CCOc1cc(C2COB(O)C2)nc(-c2ccc(OC)c(OCC)c2)n1 (centres unmarked) [Example 222, 4-(6-ethoxy-2-(3-ethoxy-4-methoxyphenyl)pyrimidin-4-yl)-1,2-oxaborolan-2-ol]",1.17,2370,1.14,1.44,–,–,–
"CCCOc1cc(-c2cncc(C3COB(O)C3)c2C)ccc1OC (centres unmarked) [Example 84, 4-(5-(4-methoxy-3-propoxyphenyl)-4-methylpyridin-3-yl)-1,2-oxaborolan-2-ol]",0.44,444,1.24,0.9,–,–,–
"CCCOc1cc(-c2ccc(F)c(C3COB(O)C3)n2)ccc1OC (single isomer, unassigned; enantiomer 1) [Example 230, 4-(3-fluoro-6-(4-methoxy-3-propoxyphenyl)pyridin-2-yl)-1,2-oxaborolan-2-ol, enantiomer 1]",26.5,2780,17.1,141,–,–,–
"CCCOc1cc(-c2nc(C3COB(O)C3)cc(C(F)(F)F)n2)ccc1OC (centres unmarked) [Example 55, 4-(2-(4-methoxy-3-propoxyphenyl)-6-(trifluoromethyl)pyrimidin-4-yl)-1,2-oxaborolan-2-ol]",–,–,2.21,–,2.27,576,3.94
